The values that follow come from patent publication US11332463B2, “Spiropiperidine allosteric modulators of nicotinic acetylcholine receptors” (Merck Sharp & Dohme Corp., priority 2018, dated 2022).

The assay has as its target T1, human α7 nicotinic acetylcholine receptor (HEK cell line stably expressing human RIC-3 and human α7) (Homo sapiens, UniProt P36544).
T1 construct: host or cells: HEK cell line (PrecisION hnAChR α7/RIC-3)
The assay is described as follows: Automated patch-clamp electrophysiology functional assay (Assay A), IonFlux HT, whole-cell population patch. The class given is cell-based. As to the method:
The α7 nAChR positive allosteric modulator (PAM) activity of the present compounds may be tested using assays known in the art. […] The assay was performed using the IonFlux HT in a whole-cell, population patch configuration. See Golden et al. Assay Drug Dev. Technol. […] The compounds were assessed for their ability to modulate the function of the human 7 nAChR stably expressed in a HEK cell line both in the presence, and in the absence of the natural 7 agonist acetylcholine. By performing a series of such measurements at different concentrations, the effective concentration of the 7 nAChR PAMs (EC50) was determined. See Spencer et al. Assay Drug Dev. Technol.
Direct activation of α7 (agonism), and potentiation of acetylcholine-evoked 7 currents was determined as follows:
Automated patch-clamp electrophysiology was performed using the IonFlux HT (Fluxion Biosciences Inc., San Francisco, Calif.) in the whole-cell, population patch configuration. Test compounds were assessed for their ability to modulate the function of the α7 nicotinic acetylcholine receptor both in the presence, and in the absence of the natural α7 agonist acetylcholine. […] Immediately prior to assay, cells were detached by first aspirating growth media, rinsing with Dulbecco's phosphate buffered saline, and then adding 10 mL of Accutase (Innovative Cell Technologies, San Diego, Calif.) to the flask and then incubating at 37° C. for 5 minutes. Detached cells were then recovered by the addition of 40 mL of CHO-serum-free media supplemented with 25 mM HEPES, and rocked gently in a 50 mL conical tube for 20 minutes prior to patch-clamp assay. After recovery, cells were pelleted by centrifugation at 1,000 RPM for 1 minute in a compact bench top centrifuge; recovery media was aspirated and cells were resuspended in external recording solution (150 mM NaCl, 5 mM KCl, 2 mM CaCl2), 1 mM MgCl2, 10 mM HEPES, 12 mM dextrose) to a density of 5.0×10^6 cells/mL. The cell suspension was added to the cell inlet wells on an IonFlux HT population patch plate which had previously been rinsed and primed with deionized H2O. Test compounds were serially diluted in DMSO and then resuspended to the final test concentration in external recording solution, with, or without 40 μM acetylcholine added to the external recording solution; test compounds were then transferred to the IonFlux HT population patch plate. Internal recording solution (110 mM TrisPO4, 28 mM TrisBase, 0.1 mM CaCl2, 2 mM MgCl2, 11 mM EGTA, 4 mM MgATP) was added to the internal recording solution inlet wells on the IonFlux HT patch plate previously loaded with cells and test compounds, and the plate loaded into the IonFlux HT instrument. A protocol was executed on the IonFlux HT to trap the cells, break into the cells, and establish the whole-cell recording configuration; cells were voltage-clamped at a holding potential of −60 mV for the duration of the experiment, all experiments were conducted at room temperature, and the IonFlux HT injection pressure was 8 psi for solution applications. Upon establishing the whole-cell configuration, external recording solution was perfused into the recording chambers for 120 seconds and then 40 μM acetylcholine was applied for 1 second and immediately washed off with external recording solution for 60 seconds. The 40 μM acetylcholine-evoked α7 current served as the current response to which subsequent test compound effects, in the presence, or in the absence of 40 μM acetylcholine would be quantified relative to. Next, test compounds were evaluated at multiple concentrations for their ability to induce, or modulate 7 current responses; three concentrations of test compound were evaluated in ascending dose fashion per recording.
In general terms: In patch-clamp work, channel activity is measured electrically.

Setting [1] is: HEK cells expressing human α7/RIC-3, test compound with or without 40 μM acetylcholine, holding potential −60 mV, room temperature, read-out: α7 nAChR Potency.
The mark [2] stands for this setting: automated patch-clamp electrophysiology functional assay (Assay A), read-out: α7 nAChR EC50.

Where two headings read alike, the source gives them in different places.

T1 sequence (P36544 23-502): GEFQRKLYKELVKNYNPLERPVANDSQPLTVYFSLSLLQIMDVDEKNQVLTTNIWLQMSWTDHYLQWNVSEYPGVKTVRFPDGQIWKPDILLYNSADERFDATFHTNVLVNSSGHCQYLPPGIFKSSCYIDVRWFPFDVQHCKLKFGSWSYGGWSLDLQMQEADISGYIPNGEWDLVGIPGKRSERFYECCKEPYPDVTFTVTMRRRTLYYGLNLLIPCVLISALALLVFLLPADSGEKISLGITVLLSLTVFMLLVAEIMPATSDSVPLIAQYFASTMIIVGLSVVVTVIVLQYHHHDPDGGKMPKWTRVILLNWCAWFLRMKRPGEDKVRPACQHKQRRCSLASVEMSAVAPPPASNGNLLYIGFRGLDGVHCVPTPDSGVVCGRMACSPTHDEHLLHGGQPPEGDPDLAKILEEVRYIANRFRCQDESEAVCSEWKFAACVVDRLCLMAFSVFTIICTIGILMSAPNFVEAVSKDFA

On to `NS(=O)(=O)N1CCC2(CC1)C[C@H]2c1noc(-c2ccc(F)cc2F)n1` [Example D15], for which the EC50 runs as follows: under setting [1], 0.5 to 5 µM; under setting [2], 1.2 µM. In the case of `NS(=O)(=O)N1CCC2(CC2c2nc(-c3cccc(OCC(F)(F)F)c3)no2)C(F)(F)C1` (centres unmarked) [Example 3, 4,4-Difluoro-1-{3-[3-(2,2,2-trifluoroethoxy)phenyl]-1,2,4-oxadiazol-5-yl}-6-azaspiro[2.5]octane-6-sulfonamide], the EC50 under setting [1] is 0.5 to 5 µM and the EC50 under setting [2] is 1.3 µM. For `CC(C)(C)n1nccc1-c1nc([C@@H]2C(F)(F)C23CCN(S(N)(=O)=O)CC3)no1` [Example E35], in that order: 0.1 to 0.5 µM and 0.25 µM. For `NS(=O)(=O)N1CCC2(CC1)C[C@H]2c1nnc(-c2cccc(OC(F)(F)F)c2)o1` [Example F3] the same measures were 0.5 to 5 µM and 0.7 µM. For `Cc1ccccc1-c1nnc([C@H]2C(F)(F)C23CCN(S(N)(=O)=O)CC3)s1` [Example H6] the same measures were 0.5 to 5 µM and 3.4 µM.

Regarding `Cc1ccccc1-c1nc([C@@H]2CC23CCN(S(N)(=O)=O)CC3)no1` [Example 33, (1R)-1-[5-(2-Methylphenyl)-1,2,4-oxadiazol-3-yl]-6-azaspiro[2.5]octane-6-sulfonamide], the EC50 is 0.1 to 0.5 µM under setting [1] and 0.39 µM under setting [2]. `NS(=O)(=O)N1CCC2(CC1)C[C@H]2c1noc(-c2cc(-n3ccnc3)ncc2C(F)(F)F)n1` [Example E31]: the EC50 was 0.5 to 5 µM under setting [1] and 4.3 µM under setting [2].

With `Cc1ccccc1-c1nnc([C@@H]2C(F)(F)C23CCN(S(N)(=O)=O)CC3)s1` [Example F14], the EC50 by setting is: under setting [1], 0.1 to 0.5 µM; under setting [2], 0.29 µM.

As to `NS(=O)(=O)N1CCC2(CC1)C[C@H]2c1noc(-c2cc(F)ccc2OC(F)(F)F)n1` [Example D21], the EC50 under setting [1] lay in the range of 0.1 to 0.5 µM and the EC50 under setting [2] came out at 0.24 µM.

Turning to `Cn1ncc(-c2nc([C@@H]3C(F)(F)C34CCN(S(N)(=O)=O)CC4)no2)c1C(F)(F)F` [Example E38], the EC50 under setting [1] was 0.1 to 0.5 µM and the EC50 under setting [2] is 0.27 µM. For `NS(=O)(=O)N1CCC2(CC1)C[C@H]2c1noc(-c2cccc(OC(F)F)c2)n1` [Example D11] the same measures were 0.5 to 5 µM and 0.51 µM. For `CC1CCCC(c2nc([C@@H]3CC34CCN(S(N)(=O)=O)CC4)no2)C1` (mixture of isomers) [Example E7] the same measures were 0.5 to 5 µM and 3.4 µM. For `Cn1nc2c(c1-c1nc([C@@H]3C(F)(F)C34CCN(S(N)(=O)=O)CC4)no1)CCC2` [Example 20, (2R)-1,1-Difluoro-2-[5-(2-methyl-2,4,5,6-tetrahydrocyclopenta[c]pyrazol-3-yl)-1,2,4-oxadiazol-3-yl]-6-azaspiro[2.5]octane-6-sulfonamide] the same measures were under 0.1 µM and 0.098 µM. `NS(=O)(=O)N1CCC2(CC1)C[C@H]2c1noc(-c2cccc(-c3ccc(F)cc3)c2)n1` [Example E74]: the EC50 under setting [1] was 0.1 to 0.5 µM. Take `NS(=O)(=O)N1CCC2(CC2c2nc(-c3ccccc3)no2)C(F)(F)C1` (single isomer, unassigned) [Example I3]: the EC50 by setting is: under setting [1], 0.5 to 5 µM; under setting [2], 2.3 µM. `COc1ccc(Cl)cc1-c1noc(C2CC23CCN(S(N)(=O)=O)CC3)n1` (racemic) [Example C13]: the EC50 under setting [1] was in the range of 0.5 to 5 µM. In the case of `NS(=O)(=O)N1CCC2(CC1)C[C@H]2c1noc(-c2ccccc2OCC(F)(F)F)n1` [Example D18], the EC50 reads like this: under setting [1], 0.1 to 0.5 µM; under setting [2], 0.16 µM.

Take `NS(=O)(=O)N1CCC2(CC1)[C@H](c1coc(-c3conc3C3CC3)n1)C2(F)F` [Example 31, (2R)-2-[2-(3-Cyclopropylisoxazol-4-yl)-1,3-oxazol-4-yl]-1,1-difluoro-6-azaspiro[2.5]octane-6-sulfonamide]: the EC50 is 0.1 to 0.5 µM under setting [1] and 0.13 µM under setting [2]. For `COc1ccc(Cl)cc1-c1noc(C2CC23CCN(S(C)(=O)=O)CC3)n1` (racemic) [Example B14] the same measures were 0.5 to 5 µM and 1.1 µM. Take `NS(=O)(=O)N1CCC2(CC1)C[C@H]2c1noc(Cc2ccc(F)cc2C(F)(F)F)n1` [Example E12]: the EC50 by setting is: under setting [1], 0.5 to 5 µM; under setting [2], 3.7 µM. As to `NS(=O)(=O)N1CCC2(CC1)C[C@H]2c1noc(Cc2c(F)cccc2C(F)(F)F)n1` [Example E4], the EC50 is, setting by setting: under setting [1], 5 to 50 µM; under setting [2], 7.2 µM. As to `Cc1ccccc1-c1noc([C@H]2C(F)(F)C23CCN(S(N)(=O)=O)CC3)n1` [Example H5], under setting [1], the EC50 is 0.5 to 5 µM.

Regarding `Cc1cn(C2CC2)nc1-c1nc([C@@H]2C(F)(F)C23CCN(S(N)(=O)=O)CC3)no1` [Example 25, (2R)-2-[5-(1-Cyclopropyl-4-methyl-1H-pyrazol-3-yl)-1,2,4-oxadiazol-3-yl]-1,1-difluoro-6-azaspiro[2.5]octane-6-sulfonamide], the EC50 is 0.1 to 0.5 µM under setting [1] and 0.21 µM under setting [2]. For `CC1CN(S(N)(=O)=O)CCC12CC2c1nc(-c2ccc(F)cc2C(F)(F)F)no1` (centres unmarked) [Example 6, 1-{3-[4-Fluoro-2-(trifluoromethyl)phenyl]-1,2,4-oxadiazol-5-yl}-4-methyl-6-azaspiro[2.5]octane-6-sulfonamide], in that order: 0.1 to 0.5 µM and 0.28 µM. Take `NS(=O)(=O)N1CCC2(CC1)C(c1noc(-c3ccccc3C3CC3)n1)C2(F)F` (centres unmarked) [Example D26]: the EC50 under setting [1] is under 0.1 µM and the EC50 under setting [2] came out at 0.013 µM. For `NS(=O)(=O)N1CCC2(CC1)C[C@H]2c1noc(-c2ccccc2C(F)(F)F)n1` [Example D17], in that order: 0.5 to 5 µM and 0.63 µM. With `Cc1ccc(-c2nc([C@@H]3CC34CCN(S(N)(=O)=O)CC4)no2)c(C)c1` [Example D19], the EC50 under setting [1] was in the range of 0.1 to 0.5 µM.

Take `Cn1cc(-c2nc([C@@H]3C(F)(F)C34CCN(S(N)(=O)=O)CC4)no2)c(C(F)(F)F)n1` [Example 19, (2R)-1,1-Difluoro-2-{5-[1-methyl-3-(trifluoromethyl)-1H-pyrazol-4-yl]-1,2,4-oxadiazol-3-yl}-6-azaspiro[2.5]octane-6-sulfonamide]: the EC50 runs as follows: under setting [1], 0.1 to 0.5 µM; under setting [2], 0.24 µM. For `CCn1nc(C)cc1-c1nc([C@@H]2CC23CCN(S(N)(=O)=O)CC3)no1` [Example E21], in that order: 0.1 to 0.5 µM and 0.4 µM. `NS(=O)(=O)N1CCC2(CC1)[C@H](c1noc(-c3cnn4c3CCCC4)n1)C2(F)F` [Example E40]: the EC50 was 0.5 to 5 µM under setting [1] and 0.84 µM under setting [2]. For `NS(=O)(=O)N1CCC2(CC2c2nc(-c3conc3C3CC3)no2)C(F)C1` (single isomer, unassigned) [Example I10], in that order: 0.5 to 5 µM and 3.4 µM. For `NS(=O)(=O)N1CCC2(CC1)[C@H](c1ncc(-c3ccc(F)cc3C(F)(F)F)o1)C2(F)F` [Example G5] the same measures were under 0.1 µM and 0.091 µM.

On to `NS(=O)(=O)N1CCC2(CC1)[C@H](c1coc(-c3ccc(F)cc3C(F)(F)F)n1)C2(F)F` [Example 24, (2R)-1,1-Difluoro-2-{2-[4-fluoro-2-(trifluoromethyl)phenyl]-1,3-oxazol-4-yl}-6-azaspiro[2.5]octane-6-sulfonamide], for which the EC50 runs as follows: under setting [1], under 0.1 µM; under setting [2], 0.09 µM.
